Reference: patent US20130143929A1, “FUNGICIDAL IMIDAZOLES” (EI DU PONT DE NEMOURS AND COMPANY, priority 2010, published 2013)
Marks after values point to notes of the source that are not given here.

Tests used:
Type in all cases: in vivo
[1] = system: Puccinia recondite f. sp. tritici (the causal agent of wheat leaf rust); assay: Test A: wheat leaf rust, preventive spray on wheat seedlings, visual disease rating; details: wheat leaf rust, preventive spray on wheat seedlings; asterisk: 40 ppm test suspension
In short: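 Wheat seedlings were sprayed to run-off with compound suspended in acetone/water containing 250 ppm Trem 014 (200 ppm ≈ 800 g/ha; some at 40 ppm). Puccinia recondite spores were inoculated the next day. Plants were held 24 h saturated at 20° C, then 7 days at 20° C, and disease control was rated visually on a 0–100 scale against controls.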

[2] = system: Blumeria graminis f. sp. tritici (also known as Erysiphe graminis f. sp. tritici, the causal agent of wheat powdery mildew); assay: Test D: wheat powdery mildew, preventive spray on wheat seedlings, visual disease rating; details: wheat powdery mildew, preventive spray on wheat seedlings; asterisk: 40 ppm test suspension
In short: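 Compound suspended in acetone/water (50/50) with 250 ppm Trem 014 and sprayed to run-off on wheat seedlings (200 ppm ≈ 800 g/ha), then inoculated next day with spore dust. Disease rated visually after 8 days at 20 °C as % control relative to untreated plants (0-100).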

[3] = system: Septoria tritici (the causal agent of wheat leaf blotch); assay: Test B: wheat leaf blotch, preventive spray on wheat seedlings, visual disease rating; details: wheat leaf blotch, preventive spray on wheat seedlings; asterisk: 40 ppm test suspension
In short: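 Wheat seedlings sprayed to run-off with compound suspension (acetone/water with 250 ppm Trem 014; 200 ppm ≈ 800 g/ha, some at 40 ppm), inoculated next day with Septoria tritici spores. 48 h saturated humidity at 24 °C, then 19 days at 20 °C; visual rating, 100 = full control.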

[4] = system: Botrytis cinerea (the causal agent of tomato Botrytis); assay: Test C: tomato Botrytis, preventive spray on tomato seedlings, visual disease rating; details: tomato Botrytis, preventive spray on tomato seedlings; asterisk: 40 ppm test suspension
In short: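 Test suspension (acetone/water with 250 ppm Trem 014; 200 ppm equivalent to 800 g/ha) sprayed to run-off on tomato seedlings; B. cinerea spores inoculated next day. After 48 h saturated humidity at 20° C then 3 days at 24° C, disease rated visually as % control relative to untreated controls (0–100).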

| Compound | Test A rating (100 = 100% disease control, 0 = no disease control relative to the controls) [1] | Test D rating (100 = 100% disease control, 0 = no disease control relative to the controls) [2] | Test B rating (100 = 100% disease control, 0 = no disease control relative to the controls) [3] | Test C rating (100 = 100% disease control, 0 = no disease control relative to the controls) [4] |
| --- | --- | --- | --- | --- |
| Cc1nc(Br)c(C(O)c2ccc(F)cc2Br)n1-c1ccc(F)cc1F (stereo not drawn) [compound 309] | 100* % | 64* % | 100* % | 65* % |
| COc1ccc(C(O)c2c(Br)nc(C)n2-c2ccc(F)cc2Br)c(F)c1 (stereo not drawn) [compound 310] | 100* % | 56* % | 100* % | 100* % |
| Cc1ncc(C(O)c2ccc(C#N)cc2F)n1-c1ccc(F)cc1Br (stereo not drawn) [compound 311] | 9* % | 0* % | 5* % | 0* % |
| COc1ccc(C(O)c2cnc(C)n2-c2ccc(F)cc2Br)c(Cl)c1 (stereo not drawn) [compound 312] | 28* % | 0* % | 12* % | 0* % |
| Cc1nc(Cl)c(C(O)c2ccc(F)cc2Br)n1-c1ccc(F)cc1F (stereo not drawn) [compound 313] | 100* % | 0* % | 100* % | 17* % |
| COc1ccc(C(O)c2c(Cl)nc(C)n2-c2ccc(F)cc2Br)c(F)c1 (stereo not drawn) [compound 314] | 100* % | 47* % | 100* % | 99* % |
| Cc1cc(F)ccc1C(O)c1c(Cl)nc(C)n1-c1c(F)cc(F)cc1Br (stereo not drawn) [compound 315] | 99* % | 96* % | 100* % | 96* % |
| Cc1nc(Cl)c(C(O)c2ccc(F)cc2F)n1-c1c(F)cccc1Br (stereo not drawn) [compound 316] | 100* % | 95* % | 100* % | 99* % |
| Cc1cccc(Cl)c1-n1c(C)nc(Br)c1C(O)c1ccc(F)cc1F (stereo not drawn) [compound 317] | 100* % | 56* % | 89* % | 96* % |
| COc1ccc(-n2c(Cl)nc(Cl)c2C(O)c2ccc(F)cc2Cl)c(F)c1 (stereo not drawn) [compound 319] | 100* % | 0* % | 100* % | 99* % |
| Cc1cccc(Cl)c1-n1c(C)nc(Cl)c1C(O)c1ccc(F)cc1F (stereo not drawn) [compound 320] | 99* % | 79* % | 100* % | 96* % |
| Cc1ncc(C(O)c2ccc(F)cc2F)n1-c1ccc(F)cc1Br (stereo not drawn) [compound 321] | 0* % | 0* % | 0* % | 0* % |
| COc1cc(F)c(C(O)c2cnc(C)n2-c2ccc(F)cc2Br)c(F)c1 (stereo not drawn) [compound 322] | 28* % | 0* % | 2* % | 0* % |
| COc1cc(F)c(C(O)c2c(Br)nc(C)n2-c2ccc(F)cc2Br)c(F)c1 (stereo not drawn) [compound 323] | 100* % | 99* % | 100* % | 100* % |
| COc1ccc(C(O)c2c(Br)nc(C)n2-c2ccc(F)cc2Br)c(Cl)c1 (stereo not drawn) [compound 324] | 100* % | 69* % | 94* % | 80* % |
| COc1cc(F)c(C(O)c2c(Cl)nc(C)n2-c2ccc(F)cc2Br)c(F)c1 (stereo not drawn) [compound 325] | 100* % | 92* % | 98* % | 100* % |
| Cc1nc(Br)c(C(O)c2ccc(C#N)cc2F)n1-c1ccc(F)cc1Br (stereo not drawn) [compound 326] | 99* % | 0* % | 90* % | 30* % |
| COc1ccc(-n2c(Cl)nc(Cl)c2C(O)c2c(F)cc(F)cc2F)c(F)c1 (stereo not drawn) [compound 327] | 100* % | 29* % | 100* % | 100* % |
| COc1ccc(-n2c(Cl)nc(Cl)c2C(O)c2ccc(F)cc2F)c(F)c1 (stereo not drawn) [compound 328] | 100* % | 64* % | 100* % | 100* % |
| Cc1nc(Cl)n(-c2c(F)cccc2Cl)c1C(O)c1ccc(F)cc1F (stereo not drawn) [compound 332] | 100* % | 92* % | 100* % | 99* % |
| COc1ccc(C(O)c2c(Cl)nc(C)n2-c2ccc(F)cc2Br)c(Cl)c1 (stereo not drawn) [compound 333] | 95* % | 86* % | 72* % | 99* % |
